# Experimental data: paper PMC5321741, “Arylmethylamino steroids as antiparasitic agents” (Nature Communications, 2017)
# Key:
# [1] = test system: Lichtheimia corymbifera JMRC:SF:09682; test: spore inhibition test; type: cell-based; conditions: 48 h; start concentration 1 mg/ml (1o, 2o), 100 µg/ml (Amphotericin B)
# Procedure: (§1) The following test organisms were used for their susceptibility to compounds 1o and 2o: Alternaria alternata JMRC:SF:09317, Arthroderma benhamiae JMRC:ST:35888, Aspergillus fumigatus JMRC:Afum:00073=ATCC 46645, Aspergillus terreus JMRC:SF:06307, Candida albicans JMRC:ST:35864, Lichtheimia corymbifera JMRC:SF:09682, Penicillium chrysogenum JMRC:SF:10137, Rhizopus arrhizus (syn. R. oryzae) JMRC:SF:05857=ATCC 56536, CBS 112.07.
# (§2) Fungi were grown on 3% malt extract solidified medium for 1 to 2 weeks at room temperature. Then the plates were washed with 7 ml sterile distilled water, and the spore suspension was filtered through 4 layers of sterile Miracloth (Kalbiochem, USA) to remove the hyphae. The concentration of the spore suspension was set to 2 × 10^4 conidia ml^−1 for the in vitro assays.
# (§3) The spore inhibition assay took place in 96-well microplates (flat base). 50 μl of the prepared spore suspension was seeded and then mixed with 50 μl of the respective inhibitor substance. Tests were started with end concentrations of 1 mg ml^−1 and were then reduced in a minimum of 10 halving steps. Thus a 2 mg ml^−1 stock solution diluted in half ten times with solvent (distilled water, 2% DMSO in distilled water, or 2% DMF in distilled water) and each 50 μl was transferred to 50 μl spore suspension. For each test substance, 12 holes on the microtiter plate were filled. After 24 h incubation (25 °C), the germination of the spores was macroscopically and microscopically examined directly in the microtiter plate via measurement of the optical density and light microscopy using an inverse stereomicroscope with subsequent photodocumentation, respectively. If necessary, the plates were further incubated for another 24 or 48 h, depending on the extent of fungal germination.
# [2] = test system: Rhizopus arrhizus (syn. R. oryzae) JMRC:SF:05857; test: spore inhibition test; type: cell-based; conditions: 48 h; start concentration 1 mg/ml (1o, 2o), 100 µg/ml (Amphotericin B)
# Procedure: as §1, §2, §3
# [3] = test system: Aspergillus fumigatus JMRC:Afum:00073; test: spore inhibition test; type: cell-based; conditions: 48 h; start concentration 1 mg/ml (1o, 2o), 100 µg/ml (Amphotericin B)
# Procedure: as §1, §2, §3
# [4] = test system: Arthroderma benhamiae JMRC:ST:35888; test: spore inhibition test; type: cell-based; conditions: 72 h; start concentration 1 mg/ml (1o, 2o), 100 µg/ml (Amphotericin B)
# Procedure: as §1, §2, §3
# [5] = test system: Alternaria alternata JMRC:SF:09317; test: spore inhibition test; type: cell-based; conditions: 48 h; start concentration 1 mg/ml (1o, 2o), 100 µg/ml (Amphotericin B)
# Procedure: as §1, §2, §3
# [6] = test system: Candida albicans JMRC:ST:35864; test: spore inhibition test; type: cell-based; conditions: 48 h; start concentration 1 mg/ml (1o, 2o), 100 µg/ml (Amphotericin B)
# Procedure: as §1, §2, §3
# [7] = test system: Penicillium chrysogenum JMRC:SF:10137; test: spore inhibition test; type: cell-based; conditions: 48 h; start concentration 1 mg/ml (1o, 2o), 100 µg/ml (Amphotericin B)
# Procedure: as §1, §2, §3
# [8] = test system: Aspergillus terreus JMRC:SF:06307; test: spore inhibition test; type: cell-based; conditions: 48 h; start concentration 1 mg/ml (1o, 2o), 100 µg/ml (Amphotericin B)
# Procedure: as §1, §2, §3
# [9] = test system: Penicillium notatum JMRC:STI:50164; test: agar diffusion inhibition zone test; type: cell-based; conditions: 1o, 2o 1,000 µg/ml in DMSO; amphotericin B 10 µg/ml; solvent DMSO 13p
# Procedure: (§4) The following organisms were tested at the Hans Knöll Institute in Jena, for their susceptibility to the compounds 1o and 2o: Bacillus subtilis JMRC:STI:10880, Staphylococcus aureus JMRC:ST:10760, Escherichia coli JMRC:ST:33699, Pseudomonas aeruginosa JMRC:ST:33772, Pseudomonas aeruginosa JMRC:ST:337721, Staphylococcus aureus JMRC:ST:33793 (multi-resistant), Enterococcus faecalis JMRC:ST:33700 (Vancomycin-resistant), Mycobacterium vaccae JMRC:STI:10670, Sporobolomyces salmonicolor (Basidiomycetes yeast) JMRC:ST:35974, Candida albicans (Ascomycetes yeast) JMRC:STI:25000, Penicillium notatum JMRC:STI:50164.
# (§5) The bacteria were propagated in Mueller Hinton Broth (Oxoid)[49]. Yeast was propagated in YPD (yeast extract peptone dextrose): 1% yeast extract, 10 g; 2% peptone, 20 g; 2% agar, 20 g; 2% dextrose (glucose), 20 g; Sigma-Y1375. All bacteria and yeast suspensions were freshly made. The cultures were incubated at 37 °C for 16 h. Afterwards, the bacteria concentration from each culture was determined, and 34 ml of nutrient agar was loaded with 10^7 cells. These cultures were stored at 6-8 °C and could be used for seven days for the preparation of test plates. 34 ml of nutrient agar was liquefied and inoculated with the calculated amount of inoculum bacteria suspension at 48–50 °C, a temperature suitable for vegetative forms of bacteria. The inoculated nutrient media (34 ml each) were immediately poured into the prepared test plates (3 mm layer). With a punching device, 12 holes per test plate were punched out. For inhibiting bacterial growth, ciprofloxacin was used as a reference substance. The test substances were dissolved in distilled water, and 5 μg ml^−1 and 50 μl was added to each bacterial culture. For inhibition of fungal growth, amphotericin B served as the reference substance. The test substances were diluted to 10 μg ml^−1 in DMSO/methanol; 50 μl was added to each culture.
# (§6) Configuring the test plate; volumes/punched hole: 50 μl; test solutions/test plate: 1 × 50 μl reference substance. Test plates were cultivated for 18 h at 37 °C. Analysis: Reading the inhibition zones (IZ): As IZ, the zone in which no growth can be determined with the naked eye is measured; the tiniest colonies on the edge of the inhibition zone were therefore not taken into consideration. The diameter (φ) of the IZ is measured in mm. The analysis of IZ φ is carried out internationally with the help of statistic procedures, especially regression analysis. With each test approach, the reference substance was brought along as a control; if there were deviations from allowed IZ φ, the test was repeated.
# (§7) The inhibition of bacterial growth was determined using bacterial cultures grown in Müller-Hinton Bouillon, which was configured at barely visible opacity with the McFarland Standard Nr. 0.5, which indicates a bacterial density of 10^8 ml^−1. This bacterial suspension was diluted with Müller-Hinton Bouillon using 2-fold dilution series in the agar diffusion test.
# (§8) Analysis: The growth in the inhibition zones around the holes containing active substances is thereby compared with the growth in the growth control (no active substance). Bacterial growth was determined according to four measurements: p=presence of colonies in the inhibition zone, P=presence of many colonies in the inhibition zone, A=indication of inhibition, F=facilitation.
# [10] = test system: Sporobolomyces salmonicolor JMRC:ST:35974; test: agar diffusion inhibition zone test; type: cell-based; conditions: 1o, 2o 1,000 µg/ml in DMSO; amphotericin B 10 µg/ml; solvent DMSO 20p
# Procedure: as §4, §5, §6, §7, §8
# [11] = test system: Candida albicans JMRC:STI:25000; test: agar diffusion inhibition zone test; type: cell-based; conditions: 1o, 2o 1,000 µg/ml in DMSO, amphotericin B 10 µg/ml, solvent DMSO 0, read-out: inhibition zone diameter, Candida albicans (H8)
# Procedure: as §4, §5, §6, §7, §8
# [12] = test system: hepatic cell line (HepG2); test: cytotoxicity on hepatic cell line (literature); type: cell-based
# [13] = test system: adult Schistosoma mansoni; conditions: no longer toxic at 1 μM; cited from earlier work
# [14] = test system: hepatic cell line (HepG2); conditions: cited from earlier work
# [15] = test system: parasitaemia; set-up: method as in Baragana et al Nature, 2015,522,315; conditions: at 0.57 mg/kg; ref Baragana et al Nature, 2015,522,315; cited from earlier work
smiles,measurement,setting,value
"C[C@@H]1[C@H](O)[C@@H](C)/C=C/C=C/C=C/C=C/C=C/C=C/C=C/[C@H](O[C@@H]2O[C@H](C)[C@@H](O)[C@H](N)[C@@H]2O)C[C@@H]2O[C@](O)(C[C@@H](O)C[C@@H](O)[C@H](O)CC[C@@H](O)C[C@@H](O)CC(=O)O[C@H]1C)C[C@H](O)[C@H]2C(=O)O [Amphotericin B, amphotericin B, reference compound]","antifungal profile, 1st value = microscopic visualization-based observation, Lichtheimia corymbifera",[1],< 0.05
same,"antifungal profile, 2nd value = optical density-based observation, Lichtheimia corymbifera",[1],< 0.05
same,"antifungal profile, 1st value = microscopic visualization-based observation, Rhizopus arrhizus",[2],25
same,"antifungal profile, 2nd value = optical density-based observation, Rhizopus arrhizus",[2],1.56
same,"antifungal profile, 1st value = microscopic visualization-based observation, Aspergillus fumigatus",[3],3.12
same,"antifungal profile, 2nd value = optical density-based observation, Aspergillus fumigatus",[3],0.4
same,"antifungal profile, 1st value = microscopic visualization-based observation, Arthroderma benhamiae",[4],3.12
same,"antifungal profile, 2nd value = optical density-based observation, Arthroderma benhamiae",[4],0.2
same,"antifungal profile, 1st value = microscopic visualization-based observation, Alternaria alternata",[5],0.78
same,"antifungal profile, 2nd value = optical density-based observation, Alternaria alternata",[5],0.1
same,"antifungal profile, 1st value = microscopic visualization-based observation, Candida albicans",[6],0.4
same,"antifungal profile, 2nd value = optical density-based observation, Candida albicans",[6],0.2
same,"antifungal profile, 1st value = microscopic visualization-based observation, Penicillium chrysogenum",[7],100
same,"antifungal profile, 2nd value = optical density-based observation, Penicillium chrysogenum",[7],1.56
same,"antifungal profile, 1st value = microscopic visualization-based observation, Aspergillus terreus",[8],50
same,"antifungal profile, 2nd value = optical density-based observation, Aspergillus terreus",[8],0.2
same,"inhibition zone diameter, Penicillium notatum (P1)",[9],19p
same,"inhibition zone diameter, Sporobolo. salmonicolor (H4)",[10],18p
same,zone of inhibition at 10 µg/mL,[11],21 mm
O=C(C1CCCCC1)N1CC(=O)N2CCc3ccccc3C2C1 (stereo not drawn) [praziquantel],selectivity index,[12]; HepG2 IC50 with respect to adult worms treated in vitro with 5 µM,33
same,selectivity index,[12]; HepG2 IC50 with respect to adult worms treated in vitro with 10 µM,16.5
same,concentration toxic for schistosomes in vitro,[13],5 to 10 µM
same,IC50,[14],165 µM
O=C(NCCN1CCCC1)c1cc(-c2ccc(CN3CCOCC3)cc2)nc2ccc(F)cc12 [DDD107498],reduction in parasitaemia,[15],90%
